Measurements reported in patent US20260062414A1, “NOVEL COCRYSTALS OF METHYLXANTHINES, THEIR POLYMORPHS AND PROCESS THEREOF” (FERTIS INDIA PVT LTD, priority 2022, published 2026).

Experiment: Dissolution studies of cocrystals
Details: for Release rate of active ingredient compared to pure form: dissolution study, cocrystal vs pure methylxanthine
Protocol: In an embodiment, the dissolution study of the cocrystals of Methylxanthines with the coformers Pterostilbene and Resveratrol were evaluated.

Compound	Bioavailability compared to pure form	Release rate of active ingredient compared to pure form	Solubility compared to pure form
COc1cc(/C=C/c2ccc(O)cc2)cc(OC)c1.Cn1c(=O)c2c(ncn2C)n(C)c1=O [CA:PB, Caffeine: Pterostilbene]	more bioavailable	slow-release rate	–
COc1cc(/C=C/c2ccc(O)cc2)cc(OC)c1.COc1nc2c(c(=O)n1C)n(C)c(=O)n2C [ML:PB, Methylliberine: Pterostilbene]	more bioavailable	slow-release rate	lower solubility
COc1cc(/C=C/c2ccc(O)cc2)cc(OC)c1.Cn1c(=O)[nH]c2ncn(C)c2c1=O [PX:PB, Paraxanthine: Pterostilbene (1:1) Cocrystal]	more bioavailable	slow-release rate	lower solubility
COc1cc(/C=C/c2ccc(O)cc2)cc(OC)c1.Cn1cnc2c1c(=O)[nH]c(=O)n2C [TB:PB, Theobromine: Pterostilbene (1:1) Cocrystal]	better bioavailability	–	improved solubility

Further lines, results first:

Bioavailability compared to pure form	Release rate of active ingredient compared to pure form	Solubility compared to pure form	Compound
more bioavailable	slow-release rate	lower solubility	COc1cc(/C=C/c2ccc(O)cc2)cc(OC)c1.Cn1c(=O)c2c(n(C)c1=O)n(C)c(=O)n2C [TC:PB, Theacrine: Pterostilbene]
more bioavailable	slow-release rate	lower solubility	Cn1c(=O)c2[nH]cnc2n(C)c1=O.Oc1ccc(/C=C/c2cc(O)cc(O)c2)cc1 [TP:RS, Theophylline: Resveratrol (1:1) Cocrystal]
